Reference: BigSolDB 2.1

CC[C@@H](C(=O)[C@@H](C)[C@@H](O)[C@H](C)CCc1ccc(C)c(O)c1C(=O)[O-])[C@H]1O[C@](CC)([C@H]2CC[C@](O)(CC)[C@H](C)O2)C[C@@H]1C.[Na+]
solubility (mole fraction)
Settings	283.15 K	288.15 K	293.15 K	298.15 K	303.15 K	308.15 K	313.15 K	318.15 K	323.15 K
in acetone	0.0117	0.0119	0.0121	0.0123	0.0125	0.0127	0.0129	0.0132	0.0135
in ethanol	0.00223	0.00246	0.0026	0.00311	0.00364	0.00419	0.00456	0.00502	0.00564
in ethyl acetate	0.00531	0.00538	0.00548	0.00556	0.00566	0.00575	0.00587	0.00596	0.00602
in isopropanol	0.00085	0.00095	0.00106	0.00117	0.00136	0.00161	0.00191	0.00211	0.00233
in methanol	0.00259	0.00293	0.0031	0.00352	0.00391	0.00413	0.00456	0.00508	0.00577
